Results from article PMC8148022 (Cancer letters, 2018).

Molecular target: T1, breast cancer resistance protein (BCRP) (Homo sapiens, UniProt Q9UNQ0)
T1 sequence (Q9UNQ0 1-655): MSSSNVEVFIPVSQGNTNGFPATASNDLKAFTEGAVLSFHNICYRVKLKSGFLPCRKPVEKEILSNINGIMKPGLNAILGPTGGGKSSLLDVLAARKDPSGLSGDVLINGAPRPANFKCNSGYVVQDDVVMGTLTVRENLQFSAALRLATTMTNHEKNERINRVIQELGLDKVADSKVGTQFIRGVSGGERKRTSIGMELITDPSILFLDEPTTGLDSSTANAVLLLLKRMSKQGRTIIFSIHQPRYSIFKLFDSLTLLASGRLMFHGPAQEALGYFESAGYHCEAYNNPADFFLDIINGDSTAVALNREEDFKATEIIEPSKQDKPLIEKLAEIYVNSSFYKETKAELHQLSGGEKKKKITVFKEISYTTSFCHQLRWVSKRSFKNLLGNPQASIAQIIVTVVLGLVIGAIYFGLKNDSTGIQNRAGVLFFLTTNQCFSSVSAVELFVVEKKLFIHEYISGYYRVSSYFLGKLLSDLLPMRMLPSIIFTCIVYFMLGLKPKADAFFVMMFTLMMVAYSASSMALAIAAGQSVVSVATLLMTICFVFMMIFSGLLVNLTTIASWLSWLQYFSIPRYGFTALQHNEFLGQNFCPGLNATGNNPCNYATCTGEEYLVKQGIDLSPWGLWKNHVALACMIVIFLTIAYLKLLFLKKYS
Assay: biochemical

CNC(=O)c1cc(Oc2ccc(NC(=O)Nc3ccc(Cl)c(C(F)(F)F)c3)c(F)c2)ccn1 [regorafenib]
EC50: 3.59 ± 0.42 µM
